{
  "source": "patent US7994183B2",
  "about": "“Solid preparation comprising 2-[[6-[(3R)-3-amino-1-piperidinyl]-3,4-dihydro-3-methyl-2,4-dioxo-1(2H)-pyrimidinyl]methyl]-4-fluorobenzonitrile” (Takeda Pharmaceutical Company Limited, priority 2007, dated 2011)",
  "test": "storage stability of compound (A) succinate alone or mixed with additive; amount of analogs by HPLC (Experimental Example 1A)",
  "assay_type": "physicochemical",
  "protocol": "Comparative Examples 1A, 2A and 3A were preserved in a glass bottle with an opened cap at 40° C., 75% RH for 2 weeks, and the amount of analogs due to decomposition of compound (A) was measured, based on which the storage stability was evaluated.\nThe amounts of the analogs were measured by high performance liquid chromatography (HPLC) under the conditions of Table 11A. As a result, an analogue that specifically increases at relative retention time (RRT) of about 1.65 was observed.",
  "data": [
    {"smiles": "Cn1c(=O)cc(N2CCC[C@@H](N)C2)n(Cc2cc(F)ccc2C#N)c1=O", "note": "[compound (A), 2-[[6-[(3R)-3-amino-1-piperidinyl]-3,4-dihydro-3-methyl-2,4-dioxo-1(2H)-pyrimidinyl]methyl]-4-fluorobenzonitrile]", "values": [
      {"measurement": "total amount of analogs (%)", "setting": "40° C./75% RH 2 wk (with opened cap), glass bottle", "result": 0.30, "unit": "%"},
      {"measurement": "total amount of analogs (%)", "setting": "initial", "result": 0.30, "unit": "%"}
    ]}
  ]
}
